# Reference: patent US8492105B2, “Screening method for an insulin resistance improving agent or a therapeutic agent for diabetes” (Fujitsu Limited, priority 2009, dated 2013)
# Legend:
# [1] = target: T1, phosphorylation of Ser727 of STAT3 by ERK2 (Homo sapiens, UniProt P28482); experiment: Phosphorylation inhibitory activity test by western blotting (anti-pS727 STAT); assay type: biochemical; details: 1 mM 5-iodotubercidin (final 1.14 mM), 22% DMSO (Sample 3); 30° C. 130 min; vs control Sample 1
# T1 construct: purchased Biosource Inc. (Active ERK); Abcam Inc. (STAT3)
# Procedure: The following ingredients were used at a composition indicated in Table 1 to prepare a reaction liquid: 5× reaction buffer (250 mM tris-HCl (pH 7.5), 50 mM magnesium chloride, 0.1% by mass bovine serum albumin (BSA) and 5 mM dithiothreitol (DTT)), Active ERK solution (0.1 mg/mL) (product of Biosource Inc.), STAT3 solution (0.2 mg/mL) (product of Abcam Inc.) and distilled water.
# Also, 5-iodotubercidin (product of Calbiochem Inc.) was used as a control compound.
# The 5-iodotubercidin was suspended in DMSO so that the final concentration thereof was adjusted to 5 mM.
# Furthermore, distilled water was added to the samples so as to appropriately adjust the volume thereof, whereby reaction mixtures were obtained.
# Each of the reaction mixtures was incubated at 30° C. for 130 min to allow Active ERK2 to phosphorylate the Ser727 of the STAT3.
# After that, to terminate the phosphorylation, 0.5M ethylenediamine tetraacetate (EDTA) was added in an amount of 2.75 μL to the reaction mixtures serving as a control (Table 2: Sample 1 or 2), and was added in an amount of 5.5 μL to the reaction mixture containing the 5-iodotubercidin (Table 2: Sample 3) or the reaction mixture containing the peptide (Table 2: Sample 4). […]
# db/db mice = experiment: Efficacy test, 28-day daily intraperitoneal injection (blood glucose, insulin, HOMA-IR); assay type: in vivo, mouse
# Procedure: Fifty mice described in Test Example 2 were used as a test animal.
# Specifically, 3.8 mg of the above peptide was dissolved in 4.75 mL of physiological saline to prepare a 0.8 mg/mL peptide solution (hereinafter may be referred to as “peptide solution 2”). Then, 1.75 mL of the peptide solution 2 was dissolved in 3.5 mL of physiological saline to prepare a 0.27 mg/mL peptide solution (hereinafter may be referred to as “peptide solution 3”). Further, 1 mL of the peptide solution 3 was dissolved in 2 mL of physiological saline to prepare a 0.09 mg/mL peptide solution (hereinafter may be referred to as “peptide solution 4”).
# A metformin solution used for an activity control group was prepared as follows. Specifically, 120 mg of metformin (product of Sigma Co.) was dissolved in 4 mL of physiological saline to prepare a 30 mg/mL metformin solution.
# The efficacy test was conducted using the following five administration groups: a solvent (physiological saline) control administration group, a 150 mg/kg metformin administration group (serving as an activity control group), a 4.00 mg/kg peptide (expressed by SEQ ID No. 1) administration group, a 1.33 mg/kg peptide administration group and a 0.44 mg/kg peptide administration group. Each administration group had 10 mice.
# The above-prepared solutions were intraperitoneally injected every day to all of the mice of the test groups at the corresponding doses given in the following Table 4 for 28 days. The body weight, the fasting blood glucose level, the postprandial blood glucose level and the fasting blood insulin level were measured by the below-described measuring method according to the measurement schedule given in the following Table 5.
# The calculating method for the HOMA-IR value is described below.
# To measure the fasting blood glucose level and blood insulin level, 50 μL of blood was sampled from the postorbital region on Day 0, Day 14 and Day 28 after administration. The serum was obtained in the same manner as in Test Example 2.
# The postprandial blood glucose level was measured using blood sampled from the tail vein on Day 1, Day 13, and Day 27 after administration.
# The blood glucose level and blood insulin level were measured in the same manner as in Test Example 2.
# The insulin resistance was determined by the HOMA (homeostasis model assessment) method using the following calculation formula. HOMA-IR (index of insulin resistance)=fasting insulin level (μU/mL)×fasting blood glucose level (mmol/L)/22.5
# All of the values are indicated as “average value±average error.” The important differences between the groups and within each group were evaluated through one-way variance analysis and Dunnett's multiple comparison. The p-values equal to or lower than 0.05 were regarded as statistically significant.
# [2] = Metformin 150 mg/kg group, Day 0
# [3] = Metformin 150 mg/kg intraperitoneal every day, Day 28
# [4] = Metformin 150 mg/kg intraperitoneal every day, Day 28 minus Day 0
# T1 sequence (P28482 whole entry): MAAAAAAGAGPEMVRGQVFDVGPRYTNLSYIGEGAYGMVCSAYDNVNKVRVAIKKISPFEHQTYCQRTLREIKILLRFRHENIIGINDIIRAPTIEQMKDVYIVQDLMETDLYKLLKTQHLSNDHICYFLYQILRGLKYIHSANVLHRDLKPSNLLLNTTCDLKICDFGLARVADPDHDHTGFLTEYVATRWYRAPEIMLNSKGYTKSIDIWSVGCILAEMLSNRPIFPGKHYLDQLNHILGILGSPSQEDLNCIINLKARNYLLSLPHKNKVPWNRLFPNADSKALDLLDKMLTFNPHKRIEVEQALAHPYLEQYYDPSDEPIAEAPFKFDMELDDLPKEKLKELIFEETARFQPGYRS
Compound,band of STAT3 whose Ser727 has been phosphorylated (western blotting) [1],Fasting blood insulin level (db/db mice; [2]) [ng/mL],HOMA-IR value (db/db mice; [2]),"Fasting blood glucose level (db/db mice; Metformin 150 mg/kg group, Day 0, average ± average error, 10 mice) [mM]","Postprandial blood glucose level (db/db mice; Metformin 150 mg/kg group, Day 1, average ± average error, 10 mice) [mM]","Postprandial blood glucose level (db/db mice; Metformin 150 mg/kg intraperitoneal every day, Day 13) [mM]","Fasting blood glucose level (db/db mice; Metformin 150 mg/kg intraperitoneal every day, Day 14) [mM]","Postprandial blood glucose level (db/db mice; Metformin 150 mg/kg intraperitoneal every day, Day 27) [mM]",Fasting blood glucose level (db/db mice; [3]) [mM],Fasting blood insulin level (db/db mice; [3]) [ng/mL],"HOMA-IR value (db/db mice; Metformin 150 mg/kg intraperitoneal every day, Day 28, # p < 0.05 vs. solvent control group)",Increment in fasting blood glucose level (db/db mice; [4]) [mM],Increment in fasting blood insulin level (db/db mice; [4]) [ng/mL],"Increment in fasting blood glucose level (db/db mice; Metformin 150 mg/kg intraperitoneal every day, Day 28 minus Day 0, listed as metformin) [mM]","Increment in postprandial blood glucose level (db/db mice; Metformin 150 mg/kg intraperitoneal every day, Day 28 minus Day 0 as printed, # p < 0.05 vs. solvent control group)","suppression of increase in fasting blood glucose level (significance) (db/db mice; Metformin 150 mg/kg, Day 0 to Day 28, vs solvent control group)","HOMA-IR value (index of insulin resistance), change (db/db mice; Metformin 150 mg/kg, Day 28)"
5-iodotubercidin,lower in intensity than the band detected in the control,–,–,–,–,–,–,–,–,–,–,–,–,–,–,–,–
"CN(C)C(=N)N=C(N)N [Metformin, metformin]",–,8.81 ± 1.33,139.4 ± 22.7,16.3 ± 1.3,22.5 ± 2.0,25.2 ± 2.0,19.3 ± 1.5,28.1 ± 1.6,22.0 ± 3.1,4.06 ± 0.84,79.6 ± 17.7^#,5.8 ± 2.4,-4.94 ± 1.77,5.8 ± 2.4,4.3 ± 2.2^# mM,not statistically significant,significantly decreased
